Assay results published in PubChem BioAssay (NCI).
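Step 1: Grow cells in 96-well plates. Step 2: Expose to compound for 48 hours at 5 concentrations. Step 3: Interpolate endpoints linearly; if unreached, use highest concentration. GI50 is the concentration that inhibits growth by half. The concentration for full growth arrest is given as TGI.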

Key:
Assay in all cases: NCI-60 cell line screen, 48 h
[1] = tested on: OVCAR-3 ovarian
[2] = tested on: NCI-H226 lung
[3] = tested on: SW-620 colon
[4] = tested on: SK-MEL-5 melanoma
[5] = tested on: HCT-15 colon
[6] = tested on: MALME-3M melanoma
[7] = tested on: MOLT-4 leukemia
[8] = tested on: SNB-19 CNS
[9] = tested on: SNB-75 CNS
[10] = tested on: LOX IMVI melanoma

Compound CCCCN(CCCC)C(=O)C(=O)C(C(=O)C(=O)OC)c1nc2ccccc2o1 (configuration not stated) has a TGI [1] of over 100 µM, a TGI [2] of over 100 µM and a TGI [3] of over 100 µM. It also gave a TGI [4] of over 100 µM, a TGI [5] of over 100 µM and a TGI [6] of over 100 µM. For the same compound, the TGI [7] was over 100 µM, the TGI [8] was over 100 µM and the TGI [9] was over 100 µM. The TGI [10] was over 100 µM.
With O=C1NC(=N[C@@H]2C[C@H]2c2ccccc2)S/C1=C\c1ccc2ncccc2c1 the GI50 [1] was 3.01 µM, the TGI [1] was 10.3 µM and the GI50 [2] was 3.18 µM. For the same compound, the TGI [2] was 10.2 µM, the GI50 [3] was 0.901 µM and the TGI [3] was over 19.4 µM. The GI50 [4] was 3.93 µM, the TGI [4] was 9.2 µM and the GI50 [5] was 0.74 µM. It also gave a TGI [5] of over 25 µM, a GI50 [6] of 2.62 µM and a TGI [6] of 12.1 µM. It also gave a GI50 [7] of 4.29 µM, a TGI [7] of 21.8 µM and a GI50 [8] of 2.98 µM. For the same compound, the TGI [8] was 24.8 µM, the GI50 [9] was 1.02 µM and the TGI [9] was 5.17 µM. The GI50 [10] was 1.22 µM and the TGI [10] was 12.1 µM.
Compound Cc1cc(C)c2c(=O)cc(-c3ccc(F)cc3)[nH]c2n1 has a GI50 [1] of 43.5 µM, a TGI [1] of over 100 µM and a TGI [2] of over 100 µM. It also gave a TGI [3] of over 100 µM, a GI50 [4] of 26.2 µM and a TGI [4] of 75.8 µM. It also gave a TGI [5] of over 100 µM, a TGI [6] of over 100 µM and a TGI [7] of over 100 µM. The TGI [8] was over 100 µM, the TGI [9] was over 100 µM and the TGI [10] was over 100 µM.
Work on O=[N+]([O-])c1cccc(C=NC23CC4CC(CC(C4)C2)C3)c1 yielded a TGI [1] of over 100 µM, a TGI [2] of over 100 µM and a TGI [3] of over 100 µM. For the same compound, the TGI [4] was over 100 µM, the TGI [5] was over 100 µM and the TGI [6] was over 100 µM. It also gave a TGI [7] of over 100 µM, a TGI [8] of over 100 µM and a TGI [9] of over 100 µM. For the same compound, the TGI [10] was over 100 µM.
Work on OC1CCC(COC(c2ccccc2)(c2ccccc2)c2ccccc2)O1 (configuration not stated) yielded a TGI [1] of 32.4 µM, a TGI [2] of 45.4 µM and a TGI [3] of 37.2 µM. The TGI [4] was 30.9 µM, the TGI [5] was 44.5 µM and the TGI [6] was 42.3 µM. For the same compound, the TGI [7] was 35.2 µM, the TGI [8] was 40 µM and the TGI [9] was 26.5 µM. It also gave a TGI [10] of 34.3 µM.
For COC(=O)CCC(=O)C(CC(=O)OC)C(=O)CCC(=O)NCCc1ccccc1 (configuration not stated), the TGI [1] was over 100 µM, the TGI [2] was over 100 µM and the TGI [3] was over 100 µM. For the same compound, the TGI [4] was over 100 µM, the TGI [5] was over 100 µM and the TGI [6] was over 100 µM. For the same compound, the TGI [7] was over 100 µM, the TGI [8] was over 100 µM and the TGI [9] was over 100 µM. The TGI [10] was over 100 µM.
CC(=O)Nc1ccc(S(=O)(=O)N/N=C/c2cc(I)cc([N+](=O)[O-])c2O)cc1 was tested, and the TGI [1] was over 100 µM, the TGI [2] was over 100 µM and the TGI [3] was over 100 µM. It also gave a TGI [4] of over 100 µM, a TGI [5] of over 100 µM and a TGI [6] of over 100 µM. It also gave a TGI [7] of over 100 µM, a TGI [8] of over 100 µM and a TGI [9] of 91.6 µM. The TGI [10] was over 100 µM.
For CNC(=O)N(CCCC(NC(C)=O)C(=O)NCc1ccccc1)Cc1ccccc1 (configuration not stated), the TGI [1] was over 100 µM, the TGI [2] was over 100 µM and the TGI [3] was over 100 µM. The TGI [4] was over 100 µM, the TGI [5] was over 100 µM and the TGI [6] was over 100 µM. The TGI [7] was over 100 µM, the TGI [8] was over 100 µM and the TGI [9] was over 100 µM. The TGI [10] was over 100 µM.
Work on CCOC(=O)c1cc2c(OC)cc(OC)cc2oc1=O yielded a TGI [1] of over 100 µM, a TGI [2] of over 100 µM and a TGI [3] of over 100 µM. The TGI [4] was over 100 µM, the TGI [5] was over 100 µM and the TGI [6] was over 100 µM. For the same compound, the TGI [7] was over 100 µM, the TGI [8] was over 100 µM and the TGI [9] was over 100 µM. For the same compound, the TGI [10] was over 100 µM.
For O=C([CH-]C(=O)c1ccccc1)c1ccccc1.O=C([CH-]C(=O)c1ccccc1)c1ccccc1.[CH2-]CCC.[CH2-]CCC.[Sn+4], the GI50 [1] was 0.758 µM, the TGI [1] was 2.13 µM and the GI50 [2] was 0.26 µM. For the same compound, the TGI [2] was 0.938 µM, the GI50 [3] was 0.133 µM and the TGI [3] was 0.325 µM. The GI50 [4] was 0.25 µM, the TGI [4] was 1.21 µM and the GI50 [5] was 0.636 µM. For the same compound, the TGI [5] was 2.14 µM, the GI50 [6] was 0.271 µM and the TGI [6] was 1.35 µM. For the same compound, the GI50 [7] was 0.253 µM, the TGI [7] was 0.754 µM and the GI50 [8] was 0.441 µM. It also gave a TGI [8] of 1.67 µM, a GI50 [9] of 1.04 µM and a TGI [9] of 2.29 µM. The GI50 [10] was 0.405 µM and the TGI [10] was 1.59 µM.
For NS(=O)(=O)c1ccc(N=Nc2c(O)[nH]c3cccc(CCc4ccncc4)c23)cc1, the GI50 [1] was over 25 µM, the TGI [1] was over 25 µM and the GI50 [2] was over 25 µM. For the same compound, the TGI [2] was over 25 µM, the GI50 [3] was over 25 µM and the TGI [3] was over 25 µM. For the same compound, the GI50 [4] was over 25 µM, the TGI [4] was over 25 µM and the GI50 [5] was over 25 µM. It also gave a TGI [5] of over 25 µM, a GI50 [6] of over 25 µM and a TGI [6] of over 25 µM. The GI50 [7] was over 25 µM, the TGI [7] was over 25 µM and the GI50 [8] was over 25 µM. The TGI [8] was over 25 µM, the GI50 [9] was over 25 µM and the TGI [9] was over 25 µM. The GI50 [10] was over 25 µM and the TGI [10] was over 25 µM.
For COc1cc(C)cc(C(=O)OCc2ccccc2)c1C1=C(Cl)C(=O)C(Cl)=CC1=O, the TGI [1] was over 10 µM, the TGI [2] was over 10 µM and the TGI [3] was over 10 µM. The TGI [4] was over 10 µM, the TGI [5] was over 10 µM and the TGI [6] was over 10 µM. It also gave a TGI [7] of 5.29 µM, a TGI [8] of over 10 µM and a TGI [9] of over 10 µM. It also gave a TGI [10] of over 10 µM.
With ClCCN(CCCl)c1ccc(OCc2ccccc2)cc1 the GI50 [1] was 8.54 µM, the TGI [1] was 34.8 µM and the GI50 [2] was 10.3 µM. For the same compound, the TGI [2] was 28 µM, the GI50 [3] was 6.46 µM and the TGI [3] was 65.8 µM. It also gave a GI50 [4] of 6.62 µM, a TGI [4] of 20.6 µM and a GI50 [5] of 5.11 µM. It also gave a TGI [5] of 84.1 µM, a GI50 [6] of 10.2 µM and a TGI [6] of 34.4 µM. The GI50 [7] was 1.74 µM, the TGI [7] was 40 µM and the GI50 [8] was 6.15 µM. It also gave a TGI [8] of over 100 µM, a GI50 [9] of 1.81 µM and a TGI [9] of 12 µM. For the same compound, the GI50 [10] was 3.13 µM and the TGI [10] was 17.4 µM.
